Reference: paper PMC10746112, “Synthesis and Pro-Apoptotic Effects of Nitrovinylanthracenes and Related Compounds in Chronic Lymphocytic Leukaemia (CLL) and Burkitt’s Lymphoma (BL)” (Molecules, 2023)

Key:
[1] = test system: MUTU-1 cells; design: method as in earlier work; conditions: nitrostyrenes and taxol, MTT assay, reported data; cited from earlier work
[2] = test system: peripheral blood mononuclear cells (PBMCs); assay: viability of peripheral blood mononuclear cells; format: cell-based, human; conditions: 24 h, healthy donor PBMCs
Description: (§1) The nitrostyrene 11h was evaluated for its cytotoxic effect on healthy donor peripheral blood mononuclear cells (PBMCs) to determine the selective toxicity of compounds containing the nitrostyrene pharmacophore on malignant BL cell lines over normal blood cells. Compound 11h was evaluated at 1 μM and 10 μM concentrations over a 24 h treatment time (Supplementary Information, Table S8).
(§2) Cells were seeded at a density of 2.5 × 10^4 cells/well (MCF-7, MDA-MB-231 cells), 1 × 10^4 cells/well (HL-60 cells), 1–5 × 10^4 cells per well (BL MUTU-I, DG-75 cells) and 2 × 10^5 cells/well [HG-3, PGA-1 (CLL cells)], Ramos, BJAB (BL cells) (200 μL per well), in 96-well plates. Cells were treated with the desired drug concentration for the appropriate time for each cell type, and the samples were incubated as required. alamarBlue (20 μL) was then added to each well and the samples further incubated in the dark at 37 °C for 4 h. Wells containing only reagent and cell culture medium in the absence of cells were used as blank controls. Ethanol was used as a vehicle, and cells were treated with 1% ethanol (v/v) in all experiments. The 96-well plates were analysed on a fluorescence plate reader (SpectraMax Gemini, Molecular Devices) (emission and excitement wavelengths of 590 nm and 544 nm, respectively), and the fluorescence was recorded. The decrease in cell viability was then calculated with reference to the vehicle samples (100% viability). EMEM medium with the addition of alamarBlue was used as a blank. Vehicle-treated cells were considered to be 100% viable, and the viabilities of each compound was calculated accordingly. […] All biochemical assays were performed in triplicate on at least three independent occasions, and the mean values were determined.
(§3) Peripheral blood was obtained from healthy donors (n = 2) after informed consent was received. The blood was then placed into a 50 mL falcon tube and diluted with an equal volume of phosphate-buffered saline (PBS). PBMCs were isolated using density gradient centrifugation using LymphoPrep as described previously Approval for this study was obtained from the School of Pharmacy and Pharmaceutical Sciences Trinity College Dublin Research Ethics Committee (2020-06-01-MS).

[3] = viability of peripheral blood mononuclear cells; format: cell-based, human; conditions: human, healthy donor PBMCs
Description: as §1, §2, §3

[4] = test system: DG-75 cells; design: method as in earlier work; conditions: nitrostyrenes and taxol, MTT assay, reported data; cited from earlier work
[5] = test system: PGA-1 CLL cells; assay: Inhibitor studies (NAC, Z-VAD-FMK), Annexin V/PI FACS; format: cell-based; conditions: 48 h
Description: (§4) Additional annexin V/PI FACS analysis was carried out in the presence of a reactive oxygen species (ROS) inhibitor (N-acetylcysteine) and a pan-caspase inhibitor (Z-VAD-FMK) in order to study their effects (if any) on the pro-apoptotic effects of 11h (Figure 6). […] Similar results were obtained in the HG-3 cell line at 2.5 µM (90% to 31%) and 5 µM of 11h (84% to 51%). In the presence of the caspase inhibitor Z-VAD-FMK ([…]), the apoptosis induced by compound 11h decreased from 63% to 25% at 2.5 µM and from 79% to 43% at 5 µM in the PGA1 cell line. Similar results were obtained in the HG-3 cell line at 2.5 µM (84% to 29%) and 5 µM (74% to 50%). These findings indicate that both caspases and ROS may be involved in the mechanism of apoptosis for compound 11h.
(§5) The HG-3 and PGA-1 CLL cells (5 × 10^4 cells/mL) were pre-treated at 37 °C with either 5 mM N-acetylcysteine (NAC) for 1 h or 40 μM caspase inhibitor (Z-VAD-FMK; MBL International, Co., Woburn, MA, USA) for 4 h prior to treatment with (11 h at 5 μM) for 48 h. Annexin V/PI FACS analysis was then carried out as described above in Section 4.5.

[6] = test system: HG-3 CLL cells; assay: as above; format: cell-based; conditions: 48 h
Description: as §4, §5

[7] = test system: MUTU-I Burkitt’s lymphoma cell line; conditions: nitrostyrenes, 24 h, cited from earlier work
[8] = test system: Ramos BL cell line; assay: alamarBlue cell viability assay; format: cell-based; conditions: Homo sapiens, 24 h
Description: as §2

[9] = test system: Bjab BL cell line; assay: alamarBlue cell viability assay; format: cell-based; conditions: Homo sapiens, 24 h
Description: as §2

[10] = test system: HL-60 promyelocytic leukaemia cells; assay: alamarBlue cell viability assay; conditions: Homo sapiens, HL-60, 24 h
[11] = test system: MCF-7 human breast cancer cells; assay: alamarBlue cell viability assay; conditions: MCF7, 72 h
[12] = test system: DG-75 Burkitt’s lymphoma cell line; conditions: nitrostyrenes, 1 µM, 48 h; cited from earlier work
[13] = test system: HeLa cervical cancer cells; assay: alamarBlue cell viability assay; conditions: Homo sapiens, 24 h

C/C(=C\c1cccc(Cl)c1)[N+](=O)[O-] [Compound 11h]
IC50 [1]: 880 nM
PBMCs % viability ([2]; 1 µM): 73.66±3.725%
PBMCs % viability ([2]; 10 µM): 34.08±9.587%
viability at 24 h, 1 µM ([3]; 1 µM): 74%
viability at 24 h, 10 µM ([3]; 10 µM): 34.1%
IC50 [4]: 2250 nM
apoptosis ([5]; PGA1, 2.5 µM compound, in the presence of NAC): 21%
apoptosis ([5]; PGA1, 2.5 µM compound, in the presence of Z-VAD-FMK): 25%
apoptosis ([5]; PGA1, 2.5 µM compound, without NAC): 68%
apoptosis ([5]; PGA1, 2.5 µM compound, without Z-VAD-FMK): 63%
apoptosis ([5]; PGA1, 5 µM compound, in the presence of NAC): 33%
apoptosis ([5]; PGA1, 5 µM compound, in the presence of Z-VAD-FMK): 43%
apoptosis ([5]; PGA1, 5 µM compound, without NAC): 88%
apoptosis ([5]; PGA1, 5 µM compound, without Z-VAD-FMK): 79%
apoptosis ([6]; HG-3, 2.5 µM compound, in the presence of NAC): 31%
apoptosis ([6]; HG-3, 2.5 µM compound, in the presence of Z-VAD-FMK): 29%
apoptosis ([6]; HG-3, 2.5 µM compound, without NAC): 90%
apoptosis ([6]; HG-3, 2.5 µM compound, without Z-VAD-FMK): 84%
apoptosis ([6]; HG-3, 5 µM compound, in the presence of NAC): 51%
apoptosis ([6]; HG-3, 5 µM compound, in the presence of Z-VAD-FMK): 50%
apoptosis ([6]; HG-3, 5 µM compound, without NAC): 84%
apoptosis ([6]; HG-3, 5 µM compound, without Z-VAD-FMK): 74%
% Viable Cells Remaining MUTU-1 24 h 1 µM ([7]; 1 µM): 39.80%
% Viable Cells Remaining MUTU-1 24 h 10 µM ([7]; 10 µM): 10.28%
viability at 1 µM ([8]; read-out: % Viable Cells Remaining Ramos 24 h 1 µM): 27.2%
viability at 10 µM ([8]; read-out: % Viable Cells Remaining Ramos 24 h 10 µM): 5.1%
viability at 1 µM ([9]; read-out: % Viable Cells Remaining Bjab 24 h 1 µM): 90.1%
viability at 10 µM ([9]; read-out: % Viable Cells Remaining Bjab 24 h 10 µM): 46.2%
viability at 1 µM ([10]; read-out: % Viable Cells Remaining HL60 24 h 1 µM): 78.2%
viability at 10 µM ([10]; read-out: % Viable Cells Remaining HL60 24 h 10 µM): 6.8%
viability at 1 µM ([11]; read-out: % Viable Cells Remaining MCF-7 72 h 1 µM): 94.3%
viability at 10 µM ([11]; read-out: % Viable Cells Remaining MCF-7 72 h 10 µM): 29.7%
% Viable Cells Remaining DG-75 48 h 1 µM [12]: 84.50%
viability at 1 µM ([13]; read-out: % Viable Cells Remaining HeLa 24 h 1 µM): 90.6%
viability at 10 µM ([13]; read-out: % Viable Cells Remaining HeLa 24 h 10 µM): 23.2%
